According to the NIST ThermoML archive (doi:10.1021/je060243s):
“And” between values parts separate entries of the source, which are not always exact repeats. Equal values may be shown once.

Experiment: wn = mass fraction of the nth substance listed
Conditions: Liquid, Pulse-echo method, w2 = 0.5

FC(F)C(F)(F)F [pentafluoroethane] + FCF
speed of sound
Conditions | 253.09 K | 258.09 K | 265.61 K | 273.12 K | 280.72 K | 288.2 K
830 kPa | – | – | – | 574.5 m/s | – | –
1000 kPa | – | 656.5 m/s | – | – | – | –
1030 kPa | – | – | – | – | 535.2 m/s | –
1060 kPa | – | – | – | – | 535.5 m/s | –
1120 kPa | – | 657.6 m/s | – | – | – | –
1150 kPa | – | – | – | – | 536.9 m/s | –
1180 kPa | 684.1 m/s | – | – | – | – | –
1190 kPa | – | – | 618.9 m/s | – | – | –
1220 kPa | – | – | – | 578.8 m/s | – | –
1260 kPa | 684.8 m/s | 658.8 m/s | – | – | 538 m/s | –
1340 kPa | – | – | 620 m/s | – | – | –
1350 kPa | – | – | – | – | – | 496 m/s
1360 kPa | – | – | – | 580.1 m/s | – | –
1380 kPa | 685.8 m/s | 659.7 m/s | – | – | 539.4 m/s | –
1420 kPa | – | – | – | – | – | 497.2 m/s
1480 kPa | – | – | – | – | – | 498 m/s
1500 kPa | 686.8 m/s | 660.8 m/s and 661 m/s | 621.6 m/s | 581.6 m/s | 540.9 m/s | –
1550 kPa | – | – | – | – | – | 499 m/s
1620 kPa | 687.7 m/s | – | – | – | – | –
1630 kPa | – | 662.2 m/s | – | – | 542.3 m/s | –
1750 kPa | 688.8 m/s | 663.1 m/s | 623.8 m/s | 584.2 m/s | 543.8 m/s | –
2010 kPa | 690.6 m/s | 665.1 m/s | 626.1 m/s | 586.8 m/s | 546.7 m/s | –
2250 kPa | 692.6 m/s | 667.1 m/s | 628.3 m/s | 589.4 m/s | 549.6 m/s | –
2510 kPa | 694.3 m/s | 669.2 m/s | 630.7 m/s | 591.9 m/s | 552.3 m/s | –
2750 kPa | 696.4 m/s | 671.4 m/s | 633 m/s | 594.1 m/s | 555 m/s | –
3010 kPa | 698.4 m/s | 673.4 m/s | 635.2 m/s | 596.9 m/s | 557.9 m/s | –
3500 kPa | 702.3 m/s | 677.1 m/s | 639.4 m/s | 601.6 m/s | 563.2 m/s | –
4000 kPa | 705 m/s | 681.1 m/s | 644 m/s | 606.4 m/s | 568.5 m/s | –
4500 kPa | 709.5 m/s | 685.3 m/s | 648.1 m/s | 611 m/s | 573.7 m/s | –
5000 kPa | 713.3 m/s | 689.1 m/s | 652.1 m/s | 615.4 m/s | 579 m/s | –
6010 kPa | 720.6 m/s | 696.6 m/s | 660.6 m/s | 624.4 m/s | 588.6 m/s | –
7010 kPa | 727.4 m/s | 703.9 m/s | 668.4 m/s | 633.3 m/s | 598.3 m/s | –
8000 kPa | 734.2 m/s | 711 m/s | 676.1 m/s | 641.5 m/s | 607.1 m/s | –
9000 kPa | 740.8 m/s | 718.1 m/s | 683.8 m/s | 649.3 m/s | 615.9 m/s | –
10000 kPa | 747.5 m/s | 724.8 m/s | 691 m/s | 657.6 m/s | 624.5 m/s | –
12000 kPa | 760.2 m/s | 738.2 m/s | 705.2 m/s | 672.7 m/s | 640.6 m/s | –
14000 kPa | 772.5 m/s | 751.2 m/s | 718.9 m/s | 687.3 m/s | 656.1 m/s | –
16010 kPa | 784.5 m/s | 763.4 m/s | 732.1 m/s | 701.1 m/s | 670.9 m/s | –
18000 kPa | 795.3 m/s | 775 m/s | 744.4 m/s | 714.5 m/s | 684.9 m/s | –
20000 kPa | 806.9 m/s | 786.7 m/s | 756.2 m/s | 727 m/s | 698.3 m/s | –
23000 kPa | 822.9 m/s | 803.2 m/s | 773.6 m/s | 745.4 m/s | 717 m/s | –
26000 kPa | 837.9 m/s | 818.7 m/s | 790.1 m/s | 762.7 m/s | 735.5 m/s | –
29010 kPa | 852.8 m/s | 833.7 m/s | 806.2 m/s | 779 m/s | 752.6 m/s | –
32000 kPa | 867.2 m/s | 848.7 m/s | 821.5 m/s | 794.8 m/s | 769.2 m/s | –
35000 kPa | 880.5 m/s | 862.6 m/s | 835.5 m/s | 809.6 m/s | 785.1 m/s | –
40000 kPa | 902.6 m/s | 885 m/s | 858.8 m/s | 833.5 m/s | 809.7 m/s | –
45000 kPa | 923.6 m/s | 906.3 m/s | 880.8 m/s | 856.4 m/s | 833.1 m/s | –
50000 kPa | 943.8 m/s | 926.7 m/s | 902 m/s | 877.8 m/s | 855.3 m/s | –
55000 kPa | 962.8 m/s | 946.6 m/s | 922.4 m/s | 898.7 m/s | 876.4 m/s | –
60000 kPa | 981.2 m/s | 965.6 m/s | 941.6 m/s | 919 m/s | 898.9 m/s | –
65000 kPa | 999.5 m/s | 983.3 m/s | 959.9 m/s | 938 m/s | 916.7 m/s | –

Conditions | speed of sound [m/s]
273.12 K | 574.5
280.72 K | 535.2
